test system: not listed separately; assay: Inhibition of hamster liver ALDH2; parameters: species or system Cricetinae

Structure (SMILES) | IC50 [nM]
O=C(O)CCCCCCCCCOc1ccc2c(=O)c(-c3ccc(O)cc3)coc2c1 | 50
CCCCCCCCCCCCOc1ccc2c(=O)c(-c3ccc(O)cc3)coc2c1 | > 9000
O=C(O)CCCCCCCCCCCOc1ccc2c(=O)c(-c3ccc(O)cc3)coc2c1 | 130
O=C(O)COc1ccc2c(=O)c(-c3ccc(O)cc3)coc2c1 | 1200
O=c1c(-c2ccc(O)cc2)coc2cc(O)ccc12 [DAIDZEIN] | 9000

More lines, now with the values ahead:

IC50 [nM] | Structure (SMILES)
1500 | CCCCCCOc1ccc2c(=O)c(-c3ccc(O)cc3)coc2c1
100 | O=C(O)CCCCOc1ccc2c(=O)c(-c3ccc(O)cc3)coc2c1
40 | O=c1c(-c2ccc(O)cc2)coc2cc(OCCOCCOCCO)ccc12
40 | O=C(O)CCCCCCCOc1ccc2c(=O)c(-c3ccc(O)cc3)coc2c1
80 | CCOc1ccc2c(=O)c(-c3ccc(O)cc3)coc2c1

molecular target: T1, Aldehyde dehydrogenase, mitochondrial (Homo sapiens, UniProt P05091); assay: Inhibition of human recombinant ALDH2
T1 sequence (P05091 whole entry): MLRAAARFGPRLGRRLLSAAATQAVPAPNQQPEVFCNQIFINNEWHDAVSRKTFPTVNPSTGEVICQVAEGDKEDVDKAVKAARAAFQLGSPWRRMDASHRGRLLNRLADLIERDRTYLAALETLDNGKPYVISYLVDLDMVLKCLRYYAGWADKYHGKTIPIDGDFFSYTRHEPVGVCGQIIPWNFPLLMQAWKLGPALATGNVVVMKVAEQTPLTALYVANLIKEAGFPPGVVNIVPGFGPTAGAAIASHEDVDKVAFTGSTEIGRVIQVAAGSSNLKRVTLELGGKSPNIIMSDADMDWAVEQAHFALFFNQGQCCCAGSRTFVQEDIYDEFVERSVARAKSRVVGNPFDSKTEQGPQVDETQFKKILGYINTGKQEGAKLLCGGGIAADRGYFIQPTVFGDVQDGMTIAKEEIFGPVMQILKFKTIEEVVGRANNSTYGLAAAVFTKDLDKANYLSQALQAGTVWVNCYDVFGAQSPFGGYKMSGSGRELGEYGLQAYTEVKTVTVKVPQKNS

Ki [nM] | Structure (SMILES)
450 | COc1cc(O)c2c(=O)c(-c3ccc(O)cc3)coc2c1 [PRUNETIN]

— ChEMBL document CHEMBL1155835 (J Med Chem, 2008)
